Among the data in patent publication US20260297542A1, “HERBICIDE RESISTANT PLANTS” (SYNGENTA CROP PROTECTION AG, priority 2023, published 2026) are inhibition values, retold here.

Assay in all cases: E. coli hemG growth inhibition by herbicide, AtPPO1 variant
Holding throughout (type): cell-based
What all share (details): read-out: percentage growth inhibition

For experiment [1], the target named is T1, AtPPO1 D448N (Arabidopsis thaliana, UniProt P55826, D448N).
T1 construct: expressed in transfected cells; host or cells: E. coli BL21(DE3) hemG, pET24a plasmid
T1 sequence (P55826 35-537 D448N): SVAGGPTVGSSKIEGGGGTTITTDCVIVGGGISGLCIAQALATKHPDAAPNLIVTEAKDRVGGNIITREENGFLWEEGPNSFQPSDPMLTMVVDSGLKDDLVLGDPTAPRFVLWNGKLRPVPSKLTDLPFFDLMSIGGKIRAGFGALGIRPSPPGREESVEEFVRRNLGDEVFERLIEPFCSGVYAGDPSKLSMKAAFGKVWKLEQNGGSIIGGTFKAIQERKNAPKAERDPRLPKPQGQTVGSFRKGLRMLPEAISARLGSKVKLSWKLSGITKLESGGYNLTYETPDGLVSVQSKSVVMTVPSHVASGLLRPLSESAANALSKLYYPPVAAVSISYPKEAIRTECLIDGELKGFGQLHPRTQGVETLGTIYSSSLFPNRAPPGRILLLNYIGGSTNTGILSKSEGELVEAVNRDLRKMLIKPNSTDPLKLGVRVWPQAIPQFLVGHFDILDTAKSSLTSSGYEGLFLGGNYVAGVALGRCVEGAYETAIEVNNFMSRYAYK
The method, boiled down: (§1)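 E. coli BL21(DE3) ΔhemG::CmR complemented by AtPPO1 variants (pET24a, T7, E. coli codon-optimised); TB + 0.1 mM IPTG, 1:100 inoculum; 6.25 ppm herbicide 0/E or 0.78 ppm herbicide B vs DMSO; 24 h, 37° C, 250 rpm; OD600 at 24 h → % growth inhibition.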

The target in experiment [2] is T2, AtPPO1 L464Y (Arabidopsis thaliana, UniProt P55826, L464Y).
T2 construct: expressed in transfected cells; host or cells: E. coli BL21(DE3) hemG, pET24a plasmid
T2 sequence (P55826 35-537 L464Y): T1 sequence (P55826 35-537 D448N) with N414D, L430Y
The method, boiled down: as §1

Experiment [3] addresses T3, AtPPO1 S305L (Arabidopsis thaliana, UniProt P55826, S305L).
T3 construct: expressed in transfected cells; host or cells: E. coli BL21(DE3) hemG (pET24a, T7 promoter)
T3 sequence (P55826 35-537 S305L): T1 sequence (P55826 35-537 D448N) with S271L, N414D
In short, it runs like this:
as §1

Experiment [4] has as its target T4, AtPPO1 Y426V (Arabidopsis thaliana, UniProt P55826, Y426V).
T4 construct: expressed in transfected cells; host or cells: E. coli BL21(DE3) hemG (pET24a, T7 promoter)
T4 sequence (P55826 35-537 Y426V): T1 sequence (P55826 35-537 D448N) with Y392V, N414D
The method, boiled down:
as §1

Numbering of substitutions follows the chain as printed.

`C#CCN1C(=O)C(F)(F)Oc2cc(F)c(-n3c(=O)n(C)c(=S)n(C)c3=O)cc21` [Herbicide B, trifludimoxazin]: the inhibition at 0.78 ppm in experiment [1] stood at 40%; in experiment [2] it was 0%; in experiment [3], 26%; in experiment [4], 5%.
`CCOC(=O)[C@]1(C)CC(c2cc(-n3c(=O)n(C)c(=S)n(C)c3=O)c(F)cc2Cl)=NO1` [Herbicide D, ethyl (5S)-3-[2-chloro-5-(3,5-dimethyl-2,6-dioxo-4-thioxo-1,3,5-triazinan-1-yl)-4-fluoro-phenyl]-5-methyl-4H-isoxazole-5-carboxylate]: the inhibition at 6.25 ppm in experiment [1] was 38%; in experiment [2], 12%; in experiment [3], 14%; in experiment [4] it was 16%.
On to `CC(C)N(C)S(=O)(=O)NC(=O)c1cc(-n2c(=O)cc(C(F)(F)F)n(C)c2=O)c(F)cc1Cl` [Herbicide E, saflufenacil], for which the inhibition at 6.25 ppm came out at 63% in experiment [1], 5% in experiment [2], 39% in experiment [3] and 7% in experiment [4].

One may read the inhibition as the percentage by which the read-out fell short of the control.
